Test results taken from article PMC6736568, “Discovery of Novel Anti-cryptosporidial Activities From Natural Products by in vitro High-Throughput Phenotypic Screening” (Frontiers in Microbiology, 2019).
Where a name gives a salt, the structure may show the parent alone. Read-outs that look alike come from different tables or passages of the source.

Experiments:
[1] = system: HCT-8 host cells (Hs18S)
[2] = in vitro
[3] = system: Cryptosporidium parvum; assay: qRT-PCR assay of the growth of C. parvum in vitro in HCT-8 host cells (primary and secondary screening, EC50); type: cell-based; settings: Cryptosporidium parvum
[4] = HCT-8, primary screening at 10 uM, read-out: Inhibition (%)
[5] = HCT-8, secondary screening at 3.3 uM, read-out: % Inhibition (3.3 uM)
[6] = primary screening at 10 uM, treated vs control

C=CC[C@@H]1/C=C(\C)C[C@H](C)C[C@H](OC)[C@H]2O[C@@](O)(C(=O)C(=O)N3CCCC[C@H]3C(=O)O[C@H](/C(C)=C/[C@@H]3CC[C@@H](O)[C@H](OC)C3)[C@H](C)[C@@H](O)CC1=O)[C@H](C)C[C@@H]2OC [TACROLIMUS]
Hs18S ΔCT ([1]; human, 41 h, 10 μM): 0.16
cytotoxicity at 41 h, 10 µM ([2]; human): 10.4%
inhibition at 10 µM [3, 4]: 75.6%
inhibition at 3.3 µM [3, 5]: -14%

CN(C)[C@@H]1C(O)=C(C(N)=O)C(=O)[C@@]2(O)C(O)=C3C(=O)c4c(O)cccc4[C@@](C)(O)[C@H]3C[C@@H]12 [TETRACYCLINE HYDROCHLORIDE]
Hs18S ΔCT [1]: -0.31
cytotoxicity at 10 µM [2]: -24.3%
inhibition at 10 µM [3, 4]: -17.3%

COc1ccc2cc1Oc1ccc(cc1)C[C@H]1c3cc(c(OC)cc3CCN1C)Oc1c(OC)c(OC)cc3c1[C@H](C2)N(C)CC3 [TETRANDRINE]
Hs18S ΔCT ([1]; human, 41 h, 10 μM): -0.04
cytotoxicity at 41 h, 10 µM ([2]; human): -2.5%
inhibition at 10 µM [3, 4]: 80.4%
inhibition at 3.3 µM [3, 5]: 1%

O=C(O[C@@H]1Cc2c(O)cc(O)cc2O[C@@H]1c1cc(O)c(=O)c2c(O)c(O)cc([C@H]3Oc4cc(O)cc(O)c4C[C@H]3O)c2c1)c1cc(O)c(O)c(O)c1 [THEAFLAVIN MONOGALLATES]
Hs18S ΔCT ([1]; human, 41 h, 10 μM): -0.10
cytotoxicity at 41 h, 10 µM ([2]; human): -7.4%
inhibition at 10 µM [3, 4]: 25.6%

O=c1c(O)cc([C@H]2Oc3cc(O)cc(O)c3C[C@H]2O)cc2c([C@H]3Oc4cc(O)cc(O)c4C[C@H]3O)cc(O)c(O)c12 [THEAFLAVIN]
Hs18S ΔCT ([1]; human, 41 h, 10 μM): 0.11
cytotoxicity at 41 h, 10 µM ([2]; human): 7.6%
inhibition at 10 µM [3, 4]: 10.2%

Cn1cnc2c1c(=O)[nH]c(=O)n2C [THEOBROMINE]
Hs18S ΔCT ([1]; human, 41 h, 10 μM): 0.03
cytotoxicity at 41 h, 10 µM ([2]; human): 2.2%
inhibition at 10 µM [3, 4]: -18.1%

Cn1c(=O)c2[nH]cnc2n(C)c1=O [THEOPHYLLINE]
Hs18S ΔCT [1, 6]: -0.29
cytotoxicity at 10 µM [2]: -22.6%
inhibition at 10 µM [3, 4]: 20.5%

CC1=CC(=O)C(C(C)C)=CC1=O [THYMOQUINONE]
Hs18S ΔCT ([1]; human, 41 h, 10 μM): -0.08
cytotoxicity at 41 h, 10 µM ([2]; human): -5.8%
inhibition at 10 µM [3, 4]: 3.13%

C[C@@H]1CC[C@@]2(OC1)O[C@H]1C[C@H]3[C@@H]4CC[C@H]5C[C@@H](O)CC[C@]5(C)[C@H]4CC[C@]3(C)[C@H]1[C@@H]2C [TIGOGENIN]
Hs18S ΔCT [1, 6]: -0.40
cytotoxicity at 41 h, 10 µM [2]: -31.8%
inhibition at 10 µM [3, 4]: 15.4%

NC[C@H]1O[C@H](O[C@H]2[C@H](O)[C@@H](O[C@H]3O[C@H](CO)[C@@H](O)[C@H](N)[C@H]3O)[C@H](N)C[C@@H]2N)[C@H](N)C[C@@H]1O [TOBRAMYCIN]
Hs18S ΔCT ([1]; human, 41 h, 10 μM): -0.49
cytotoxicity at 41 h, 10 µM ([2]; human): -40.8%
inhibition at 10 µM [3, 4]: 4.08%

C[C@H]1CC[C@]2(NC1)O[C@H]1C[C@H]3[C@@H]4CC[C@H]5C[C@@H](O[C@@H]6O[C@H](CO)[C@H](O[C@@H]7O[C@H](CO)[C@@H](O)[C@H](O[C@@H]8OC[C@@H](O)[C@H](O)[C@H]8O)[C@H]7O[C@@H]7O[C@H](CO)[C@@H](O)[C@H](O)[C@H]7O)[C@H](O)[C@H]6O)CC[C@]5(C)[C@H]4CC[C@]3(C)[C@H]1[C@@H]2C [TOMATINE]
Hs18S ΔCT [1, 6]: 0.04
cytotoxicity at 10 µM [2]: 2.7%
inhibition at 10 µM [3, 4]: 92.9%
inhibition at 3.3 µM [3, 5]: 25%

CC(C)c1c(O)ccc2c1CC[C@H]1C(C)(C)CCC[C@]21C [TOTAROL]
Hs18S ΔCT ([1]; human, 41 h, 10 μM): -0.36
cytotoxicity at 41 h, 10 µM ([2]; human): -28.4%
inhibition at 10 µM [3, 4]: -9.45%

CC1=C(/C=C/C(C)=C/C=C/C(C)=C/C(=O)O)C(C)(C)CCC1 [TRETINOIN]
Hs18S ΔCT ([1]; human, 41 h, 10 μM): -0.28
cytotoxicity at 41 h, 10 µM ([2]; human): -21.5%
inhibition at 10 µM [3, 4]: 7.49%

CC(=O)Oc1ccc(/C=C/c2cc(OC(C)=O)cc(OC(C)=O)c2)cc1 [TRIACETYLRESVERATROL]
Hs18S ΔCT [1, 6]: 0.19
cytotoxicity at 10 µM [2]: 12.4%
inhibition at 10 µM [3, 4]: -64.8%

C[n+]1cccc(C(=O)[O-])c1 [TRIGONELLINE]
Hs18S ΔCT ([1]; human, 41 h, 10 μM): 0.03
cytotoxicity at 41 h, 10 µM ([2]; human): 2.2%
inhibition at 10 µM [3, 4]: -29.9%

CC(C)c1ccc2c(c1O)CC[C@H]1C3=C(CC[C@]21C)C(=O)OC3 [TRIPTOPHENOLIDE]
Hs18S ΔCT ([1]; human, 41 h, 10 μM): -0.29
cytotoxicity at 41 h, 10 µM ([2]; human): -22.1%
inhibition at 10 µM [3, 4]: -24.5%

NCCc1c[nH]c2ccccc12 [TRYPTAMINE]
Hs18S ΔCT [1, 6]: -0.43
cytotoxicity at 10 µM [2]: -34.7%
inhibition at 10 µM [3, 4]: 95.5%
inhibition at 3.3 µM [3, 5]: 12%

N[C@@H](Cc1c[nH]c2ccccc12)C(=O)O [TRYPTOPHAN]
Hs18S ΔCT ([1]; human, 41 h, 10 μM): -0.75
cytotoxicity at 41 h, 10 µM ([2]; human): -68.2%
inhibition at 10 µM ([3]; HCT-8): 85.5%
inhibition at 3.3 µM ([3]; HCT-8, read-out: % Inhibition (3.3 uM)): 17%

NCCc1ccc(O)cc1 [TYRAMINE]
Hs18S ΔCT ([1]; human, 41 h, 10 μM): -0.27
cytotoxicity at 10 µM [2]: -20.9%
inhibition at 10 µM [3, 4]: -27.4%

O=c1ccc2ccc(O)cc2o1 [UMBELLIFERONE]
Hs18S ΔCT [1]: -0.92
cytotoxicity at 10 µM [2]: -88.9%
inhibition at 10 µM [3, 4]: -15.7%

O=c1cc[nH]c(=O)[nH]1 [URACIL]
Hs18S ΔCT [1, 6]: -0.28
cytotoxicity at 41 h, 10 µM ([2]; human): -21.4%
inhibition at 10 µM [3, 4]: 2.08%

O=c1ccn([C@@H]2O[C@H](CO)[C@@H](O)[C@H]2O)c(=O)[nH]1 [URIDINE]
Hs18S ΔCT ([1]; human, 41 h, 10 μM): 0.02
cytotoxicity at 41 h, 10 µM ([2]; human): 1.4%
inhibition at 10 µM [3, 4]: 44.8%

COc1ccc(C(=O)CC(=O)O)c2c1C=CC(C)(C)O2 [URSINOIC ACID]
Hs18S ΔCT ([1]; human, 41 h, 10 μM): -0.46
cytotoxicity at 41 h, 10 µM ([2]; human): -37.5%
inhibition at 10 µM [3, 4]: 14.2%

C[C@H](CCC(=O)O)[C@H]1CC[C@H]2[C@@H]3CC[C@@H]4CCCC[C@]4(C)[C@H]3CC[C@]12C [URSOCHOLANIC ACID]
Hs18S ΔCT [1, 6]: -0.10
cytotoxicity at 41 h, 10 µM [2]: -6.9%
inhibition at 10 µM [3, 4]: 59.3%

C[C@H](CCC(=O)O)[C@H]1CC[C@H]2[C@@H]3[C@@H](O)C[C@@H]4C[C@H](O)CC[C@]4(C)[C@H]3CC[C@]12C [URSODIOL]
Hs18S ΔCT ([1]; human, 41 h, 10 μM): -0.15
cytotoxicity at 41 h, 10 µM ([2]; human): -10.9%
inhibition at 10 µM [3, 4]: -41.7%

CC(=O)c1c(O)c(C)c(O)c2c1OC1=CC(=O)C(C(C)=O)C(=O)C12C (stereo not drawn) [USNIC ACID]
Hs18S ΔCT [1, 6]: -0.31
cytotoxicity at 10 µM [2]: -23.9%
inhibition at 10 µM [3, 4]: 18.8%

CCC(C)C(=O)O[C@@H]1C[C@@]2(C)[C@H](c3ccoc3)OC(=O)CC23OC2(C)O[C@]14[C@]1(C)[C@@H](CC(=O)OC)C5(C)CC1(O)[C@](O)(C5OC(=O)C1(C)OC1C)[C@@H](OC(C)=O)[C@]34O2 (stereo partly drawn) [UTILIN]
Hs18S ΔCT ([1]; human, 41 h, 10 μM): 0.06
cytotoxicity at 41 h, 10 µM ([2]; human): 4.2%
inhibition at 10 µM [3, 4]: 36.8%

COc1ccc(C(=O)O)cc1OC [VERATRIC ACID]
Hs18S ΔCT [1, 6]: -0.09
cytotoxicity at 10 µM [2]: -6.7%
inhibition at 10 µM [3, 4]: -10.7%

CC[C@]1(O)C[C@@H]2CN(CCc3c([nH]c4ccccc34)[C@@](C(=O)OC)(c3cc4c(cc3OC)N(C)[C@H]3[C@@](O)(C(=O)OC)[C@H](OC(C)=O)[C@]5(CC)C=CCN6CC[C@]43[C@@H]65)C2)C1 [VINBLASTINE SULFATE]
Hs18S ΔCT ([1]; human, 41 h, 10 μM): 0.81
cytotoxicity at 41 h, 10 µM ([2]; human): 43%
inhibition at 10 µM [3, 4]: 71.7%
inhibition at 3.3 µM [3, 5]: 67%

CC[C@]12CCCN3CCc4c(n(c5ccccc45)[C@@](O)(C(=O)OC)C1)[C@@H]32 [VINCAMINE]
Hs18S ΔCT ([1]; human, 41 h, 10 μM): 0.12
cytotoxicity at 41 h, 10 µM ([2]; human): 8.2%
inhibition at 10 µM [3, 4]: -20.8%

COc1cc(C/C=C/c2ccccc2)c(OC)cc1O [VIOLASTYRENE]
Hs18S ΔCT ([1]; human, 41 h, 10 μM): -0.30
cytotoxicity at 41 h, 10 µM ([2]; human): -23.3%
inhibition at 10 µM [3, 4]: -23.6%

COc1c2ccoc2cc2oc(C)cc(=O)c12 [VISNAGIN]
Hs18S ΔCT ([1]; human, 41 h, 10 μM): -0.27
cytotoxicity at 41 h, 10 µM ([2]; human): -20.7%
inhibition at 10 µM [3, 4]: 15.1%

COC(=O)/C(=C1/OC(=O)C(c2ccccc2)=C1O)c1ccccc1 [VULPINIC ACID]
Hs18S ΔCT ([1]; human, 41 h, 10 μM): 0.64
cytotoxicity at 41 h, 10 µM ([2]; human): 36%
inhibition at 10 µM [3, 4]: -77.9%
